# Patent publication US8906945B2 (priority 2009, dated 2014)
# “Also recorded” adds a separate entry of the source. Where two headings read alike, the source gives them in different places.
# How the values were obtained:
# [1] = tested on: T3SS-mediated secretion of ExoS′-βLA fusion protein from P. aeruginosa strain MDM973; test: microbe, parasite or virus in culture; type: cell-based, Pseudomonas aeruginosa; conditions: for IC50: Pseudomonas aeruginosa
# [2] = tested on: T3SS-mediated secretion of YopE-βLA fusion protein from Y. pestis strain JG153/pMM85; test: microbe, parasite or virus in culture; type: cell-based; conditions: Yersinia pestis
# P. aeruginosa = test: Minimum inhibitory concentration (broth microdilution); conditions: Pseudomonas aeruginosa, read-out: MIC vs. P. aeruginosa
# [3] = tested on: P. aeruginosa T3SS (exoT-luxCDABE reporter strain MDM852); type: cell-based, Pseudomonas aeruginosa
# [4] = tested on: HeLa cell internalization of P. aeruginosa; test: Gentamicin protection assay of bacterial internalization; conditions: 50 μM, ExoT-producing P. aeruginosa, MOI 10
# [5] = tested on: Chlamydia trachomatis L2 in Hep-2 cells; test: Chlamydia trachomatis growth inhibition assay; type: cell-based
# Procedure: Inhibition of the growth of Chlamydia trachomatis L2 strain by compounds was measured in 24-well plates essentially according to the method of Wolf et al. (59). Confluent monolayer Hep-2 cells were infected with L2 at an MOI of 0.5 and treated with compounds at indicated concentrations for 48 h. Then cultures were collected and sonicated. Entire lysates were used for counting inclusion forming units (IFUs) as a measurement of production of Chlamydia progeny elementary bodies (EBs) by re-plating onto fresh HeLa monolayers. An uninhibited control (DMSO only) and a complete inhibition control (chloramphenicol, 200 μg/ml) were included. Experiments were done in triplicate.
# [6] = 50 μM added after 2.5 hours of T3SS induction
smiles,measurement,setting,value
"CC(Oc1ccc(Cl)cc1Cl)C(=O)NCc1ccc2c(c1)OCO2 (racemic) [Compound 1, N-(benzo[d][1,3]dioxol-5-ylmethyl)-2-(2,4-dichlorophenoxy)propanamide]",time to 50% inhibition of ExoS′-βLA secretion,[1]; [6],≤ 15 min
same,time to 100% inhibition of ExoS′-βLA secretion,[1]; [6],≤ 45 min
same,IC50,"[1]; read-out: ExoS′-βLA IC50, Table 3, secretion from P. aeruginosa strain MDM973 reduced by 50%",12.5 µM
same,IC50,"[1]; read-out: IC50 (μM) (ExoS′-βLA assay), Table 4",10 µM
same,potency when administered during or after the 2.5 hour EGTA induction of T3SS,[1]; unpublished observations,equally potently
same,IC50,[2]; read-out: IC50 of YopE-βLA secretion from Y. pestis strain JG153,~38 µM
same,IC50,[2]; read-out: yopE-βLA IC50,22 µM
same,MIC,P. aeruginosa,> 100 µM
same,Serum Effect,"[3]; % inhibition of exoT-lux RLU in the absence of serum/% inhibition in the presence of 10% fetal calf serum, both at 50 μM compound",3.7
same,z-score in the high throughput screen,"[3]; strain MDM852, RLU at 200 minutes",10
same,stimulation of internalization of bacterial cells by HeLa cells,[4],over 11 fold
same,reduction of growth of C. trachomatis L2 in Hep-2 cells,"[5]; 50 μM, MOI 0.5, listed as MBX 1641",significantly reduced; also recorded: inhibits the growth
same,concentration dependence of effect on C. trachomatis growth in Hep-2 cells,[5]; FIG. 3D,concentration-dependent effect
